Read-outs that look alike come from different tables or passages of the source. Some results are limits rather than exact numbers.

The target in one data set is USP14 (Homo sapiens, UniProt P54578). In words: SPR binding to recombinant USP14, NTA chip. The text has this:
(§1) A BIACORE T200 was used for characterization of the interaction between compounds and USP14, UCHL5 and 26S proteasome. The standard BIACORE protocols were used for NTA chip (Ni/His-tag immobilization) and CM7 chip for compound interaction studies with slight modification described below. The x6 his-tagged USP14 and UCHL5 proteins were coupled to a Series S NTA BIACORE sensor chip in the BIACORE T200 using the his-tags for adherence of the proteins to the surface and an amine coupling procedure for covalent attachment to the chip surface. NTA chip was cleaned using three 500 μM EDTA injections followed by an injection of 500 μM Ni^2+ and activation of the chip surface with EDC/NHS injection according to BIACORE standard methods. Each chip has four separate areas, which were handled separately during the immobilization procedure. Area 1 was used as blank reference surface, area 2–4 was coupled with investigated recombinant proteins or complexes. Proteins were diluted in running buffer (10 mM HEPES, 150 mM NaCl, 0,005% Tween 20) to typically 10 μg/ml before injection(1 mL) over the prepared surfaces. […] The immobilization procedure was followed by injections of compound concentration series of VLX1570. Concentration series were set up with ×3 and ×2 dilution series ending with the highest concentration 200 μM for the consecutive measurements of changes of refractive index. Compounds were kept in stock concentrations of 10 mM in DMSO and diluted in running buffer down to the test concentration. Rmax and KD were calculated using Langmuir binding isotherms as provided in the Biacore software.

The target in the next data set is T1, UCHL5 (Homo sapiens, UniProt Q9Y5K5).
T1 sequence (Q9Y5K5 1-329): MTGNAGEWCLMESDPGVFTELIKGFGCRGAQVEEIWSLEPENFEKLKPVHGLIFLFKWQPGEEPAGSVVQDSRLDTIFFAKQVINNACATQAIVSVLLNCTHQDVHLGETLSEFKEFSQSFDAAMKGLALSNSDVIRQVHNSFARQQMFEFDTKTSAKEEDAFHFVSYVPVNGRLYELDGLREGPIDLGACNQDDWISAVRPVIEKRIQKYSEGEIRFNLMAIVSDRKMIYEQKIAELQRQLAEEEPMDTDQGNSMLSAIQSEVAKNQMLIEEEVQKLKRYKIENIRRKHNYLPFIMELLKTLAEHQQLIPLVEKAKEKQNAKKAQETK
In words: SPR binding to recombinant UCHL5, NTA chip. The conditions noted are these: protein from ProSpec, read-out: UCHL5(P) KD.
From the text: as §1, with “Concentration series were set up with ×3 and ×2 dilution series ending with the highest concentration 200 μM for the consecutive measurements of changes of refractive index. Compounds were kept in stock concentrations of 10 mM in DMSO and diluted in running buffer down to the test concentration.” left out

A further data set has as its target 26S proteasome (Homo sapiens, UniProt P54578+Q9Y5K5). In words: SPR binding to 26S proteasomes, CM7 chip.
From the text: as §1, with “Concentration series were set up with ×3 and ×2 dilution series ending with the highest concentration 200 μM for the consecutive measurements of changes of refractive index. Compounds were kept in stock concentrations of 10 mM in DMSO and diluted in running buffer down to the test concentration.” left out

In the next data set the test system is KMS-11. In words: MTT antiproliferative assay, KMS-11. The data set is classed as cell-based. The settings on record: Homo sapiens, 72 hours. As to the method:
(§2) Cell viability was monitored by the MTT (3-(4,5-dimethylthiazol-2-yl)-2,5-diphenyltetrazolium bromide) assay. For the MTT assay, cells were suspended at 5 × 10^5 cells/ml, and 100 μl aliquots were dispended into 96-well microtiter plates and exposed to drugs as described using DMSO control. At the end of incubations, 10 μl of a stock solution of 5 mg/ml MTT (3-(4,5-dimethylthiazol-2-yl)-2,5-diphenyltetrazolium bromide), was added into each well, and the plates were incubated 4 hours at 37 °C. Formazan crystals were dissolved with 100 μl of 10% SDS/10 mM HCl solution overnight at 37 °C. Since MTT assays are affected by mitochondrial activity, and since OXPHOS is affected by VLX1570 (unpublished observation), we used the acid phosphatase method[49] to determine cell viability in some experiments. After washing twice with PBS, cells were lysed in 100 μl of 0.1 M sodium acetate, 0,1% Triton X-100, p-nitrophenylphosphate (Pierce Biotechnology Inc, Rockford, IL) and incubated for 90 min at 37 °C. At the end of the incubation, 10 μl NaOH was added to each well and A405 was determined.

The subject of another data set is OPM-2. As to the kind of experiment: MTT antiproliferative assay, OPM-2. The data set is classed as cell-based. The settings on record: Homo sapiens, 72 hours. On the procedure: as §2
Another data set relates to OPM-2-BZ^R. As to the kind of experiment: MTT antiproliferative assay, OPM-2-BZR. It is filed as cell-based. The conditions noted are these: Homo sapiens, OPM-2-BZ^R (bortezomib resistant), 72 hours. As to the method:
as §2

In data set [1] the test system is 26S proteasome and immunoproteasome. As to the kind of experiment: Proteasome and immunoproteasome proteolytic activity in OPM-2 cells. It is filed as cell-based, human. The conditions noted are these: 0.5 μM, 3 hours.
For a further data set, the system named is OPM-2 cells. As to the kind of experiment: 3H-VLX1570 retention after wash-out in OPM-2 cells. The data set is classed as cell-based, human. The settings on record: 1 hour exposure, 17 hours in drug-free medium.
Data set [2] concerns proteasome DUB activity. More on the design: method as in PMID 25854145. The settings on record: competitive inhibitor; read-out: IC50, inhibition of proteasome DUB activity in vitro; cited from earlier work.
Data set [3] has as its system proteasome DUB activity. More on the design: method as in PMID 25854145. The settings on record: in cells; read-out: in vivo IC50 for inhibition of proteasome DUB activity and induction of apoptosis; cited from earlier work.
Another data set concerns non-proteasomal DUBs. More on the design: method as in PMID 25854145. The settings on record: cited from earlier work.
On the set-up of data set [4]: method as in PMID 25854145. The settings on record: cited from earlier work.
The subject of the next data set is OPM-Bz^R cells. As to the kind of experiment: 3H-VLX1570 cellular uptake, OPM-Bz^R versus parental cells. The conditions noted are these: OPM-Bz^R cells compared to parental cells.

Sequence of USP14 (P54578 whole entry): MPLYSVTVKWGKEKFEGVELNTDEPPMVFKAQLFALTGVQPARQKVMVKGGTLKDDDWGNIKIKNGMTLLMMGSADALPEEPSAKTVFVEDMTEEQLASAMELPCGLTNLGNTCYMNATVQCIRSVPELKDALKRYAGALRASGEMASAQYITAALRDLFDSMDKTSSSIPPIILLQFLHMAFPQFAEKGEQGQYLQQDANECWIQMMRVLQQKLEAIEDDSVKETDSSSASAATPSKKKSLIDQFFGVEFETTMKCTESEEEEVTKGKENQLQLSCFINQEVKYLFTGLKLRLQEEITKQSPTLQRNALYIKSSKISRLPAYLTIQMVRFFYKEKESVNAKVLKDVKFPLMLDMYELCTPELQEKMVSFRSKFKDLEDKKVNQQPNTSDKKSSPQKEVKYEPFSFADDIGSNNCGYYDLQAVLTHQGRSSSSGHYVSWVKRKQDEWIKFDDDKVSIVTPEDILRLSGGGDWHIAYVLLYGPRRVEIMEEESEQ
Sequence of 26S proteasome (P54578 whole entry, one chain of several): as the sequence (P54578 whole entry) above
Sequence of 26S proteasome (Q13200 whole entry partner, one chain of several): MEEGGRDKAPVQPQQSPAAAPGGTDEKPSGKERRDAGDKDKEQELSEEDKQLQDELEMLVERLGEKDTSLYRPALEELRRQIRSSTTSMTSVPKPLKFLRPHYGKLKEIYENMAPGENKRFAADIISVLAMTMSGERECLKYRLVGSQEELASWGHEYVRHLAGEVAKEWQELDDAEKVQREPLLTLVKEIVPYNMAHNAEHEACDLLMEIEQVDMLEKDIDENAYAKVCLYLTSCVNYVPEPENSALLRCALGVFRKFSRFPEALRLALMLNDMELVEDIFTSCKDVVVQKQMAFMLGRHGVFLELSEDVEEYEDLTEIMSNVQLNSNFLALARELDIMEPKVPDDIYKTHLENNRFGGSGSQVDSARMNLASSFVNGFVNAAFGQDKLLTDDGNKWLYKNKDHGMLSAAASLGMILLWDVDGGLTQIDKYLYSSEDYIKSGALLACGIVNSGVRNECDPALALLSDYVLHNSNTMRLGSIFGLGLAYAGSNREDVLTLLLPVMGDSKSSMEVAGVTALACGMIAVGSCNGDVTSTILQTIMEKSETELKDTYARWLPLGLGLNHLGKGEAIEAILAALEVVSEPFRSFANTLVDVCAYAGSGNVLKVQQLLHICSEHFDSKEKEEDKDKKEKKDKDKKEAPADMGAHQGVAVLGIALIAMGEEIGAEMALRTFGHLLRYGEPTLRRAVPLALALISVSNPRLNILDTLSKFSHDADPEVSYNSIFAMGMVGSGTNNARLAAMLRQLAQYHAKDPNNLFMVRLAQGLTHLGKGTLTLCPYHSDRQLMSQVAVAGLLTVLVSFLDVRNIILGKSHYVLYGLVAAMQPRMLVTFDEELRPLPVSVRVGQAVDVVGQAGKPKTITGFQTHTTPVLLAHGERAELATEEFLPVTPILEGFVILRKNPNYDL

With `C=CC(=O)N1CC/C(=C\c2ccc(F)c([N+](=O)[O-])c2)C(=O)/C(=C/c2ccc(F)c([N+](=O)[O-])c2)C1` [VLX1570], the Kd at USP14 (NTA chip, protein from Karolinska Institute Protein Science Facility, read-out: USP14(K) KD) was 18000 nM; at USP14 (NTA chip, protein from ProSpec, read-out: USP14(P) KD), 8100 nM; at USP14 (NTA chip, protein from Ubiquigent, read-out: USP14(U) KD), 1500 nM; at USP14 (two different sources of recombinant protein, Ni2+-histidine immobilisation, read-out: dissociation constant (KD) for binding to recombinant USP14) it was 1500 to 18000 nM; at UCHL5 it was 14000 nM. Besides, the “VLX1570 binding Relative RU × 100 +/− S.D.” value was found to be 0.21 ± 0.09 at 26S proteasome (immobilised 26S proteasome) and 0.04 ± 0.01 on 26S proteasome (immobilised 26S proteasome pre-incubated with Ub-VS). The half-inhibitory concentration (IC50) with KMS-11 was 43 ± 2 nM; in the data set with OPM-2, 126 ± 3 nM; with OPM-2-BZ^R, 191 ± 1 nM; in the data set with proteasome DUB activity [2], approximately 10000 nM; in the data set on proteasome DUB activity [3] it was less than 1000 nM. Besides, in data set [1], the “chymotryptic, tryptic and caspase-like activity of 26S proteasome and chymotryptic activity of immunoproteasome” value is reported as “no change”. Besides, the “drug associated with the cells after wash-out” value with OPM-2 cells is recorded as “Approximately 70%”. For the same compound, the “inhibition of a panel of non-proteasomal DUBs” value with non-proteasomal DUBs is listed as “not inhibiting”. Moreover, in [4], the “solubility compared to b-AP15” value is recorded as “improved solubility”. Further, the “cellular uptake of radiolabeled drug” value in the data set on OPM-Bz^R cells is “decreased uptake”.

The record behind these values is publication PMC4893612 (Scientific Reports, 2016).
